From patent US20230141603A1, “BENZODIAZEPINE DERIVATIVES AS GABA A GAMMA1 PAM” (Hoffmann-La Roche Inc., priority 2021, published 2023)

Target: T1, h-GABAA α2β2γ1 (Homo sapiens, UniProt P47869+Q8N1C3)
T1 sequence (P47869 29-451): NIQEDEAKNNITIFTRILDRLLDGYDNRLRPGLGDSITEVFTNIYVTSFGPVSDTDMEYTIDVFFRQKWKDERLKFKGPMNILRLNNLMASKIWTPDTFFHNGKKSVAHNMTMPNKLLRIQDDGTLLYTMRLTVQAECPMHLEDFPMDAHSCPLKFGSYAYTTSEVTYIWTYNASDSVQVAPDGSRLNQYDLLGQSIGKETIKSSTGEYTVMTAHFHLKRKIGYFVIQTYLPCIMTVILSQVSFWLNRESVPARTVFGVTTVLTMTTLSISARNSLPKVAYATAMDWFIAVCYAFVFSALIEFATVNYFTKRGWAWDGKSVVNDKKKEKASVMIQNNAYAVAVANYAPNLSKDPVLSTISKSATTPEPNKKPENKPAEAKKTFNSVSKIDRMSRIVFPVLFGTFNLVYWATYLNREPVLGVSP
T1 sequence (P47870 25-512 partner limits assumed): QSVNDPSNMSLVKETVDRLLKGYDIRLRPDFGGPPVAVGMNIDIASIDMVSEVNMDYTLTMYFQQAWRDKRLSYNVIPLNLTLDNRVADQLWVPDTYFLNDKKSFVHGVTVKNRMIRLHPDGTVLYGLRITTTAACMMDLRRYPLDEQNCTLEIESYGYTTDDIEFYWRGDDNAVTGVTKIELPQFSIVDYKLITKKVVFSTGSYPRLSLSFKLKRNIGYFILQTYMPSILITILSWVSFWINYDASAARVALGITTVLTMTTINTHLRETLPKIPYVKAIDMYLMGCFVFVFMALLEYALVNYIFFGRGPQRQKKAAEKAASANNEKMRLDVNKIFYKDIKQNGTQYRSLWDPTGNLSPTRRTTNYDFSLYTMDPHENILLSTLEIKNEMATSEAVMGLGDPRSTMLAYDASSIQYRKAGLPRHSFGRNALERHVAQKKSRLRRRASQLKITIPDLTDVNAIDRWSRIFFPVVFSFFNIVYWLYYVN
T1 sequence (Q8N1C3 36-465): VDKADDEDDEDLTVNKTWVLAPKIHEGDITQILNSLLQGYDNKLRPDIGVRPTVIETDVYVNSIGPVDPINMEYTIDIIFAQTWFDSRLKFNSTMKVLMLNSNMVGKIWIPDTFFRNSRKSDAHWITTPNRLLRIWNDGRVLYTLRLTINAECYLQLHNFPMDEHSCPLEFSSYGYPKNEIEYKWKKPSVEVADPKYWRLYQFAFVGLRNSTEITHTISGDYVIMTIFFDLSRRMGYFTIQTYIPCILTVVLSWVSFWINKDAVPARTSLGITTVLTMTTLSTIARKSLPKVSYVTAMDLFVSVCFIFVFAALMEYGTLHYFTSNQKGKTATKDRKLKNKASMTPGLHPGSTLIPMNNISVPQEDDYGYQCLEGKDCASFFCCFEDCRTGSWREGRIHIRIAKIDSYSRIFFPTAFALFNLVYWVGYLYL
Test: Two-electrode voltage clamp electrophysiology in Xenopus oocytes, modulation of GABA EC20 current
Type: cell-based
Design: host or cells: Xenopus laevis oocytes, RNA micro-injection
Conditions: Table 2; for Efficacy (GABA)%: % modulation of GABA EC20 = 100*(Fold increase−1), compound at approx. 30-fold Ki; for Fold increase h-GABA-A α2β2γ1 oocyte @ 30-fold Ki: compound at approx. 30-fold its Ki α2β2γ1, GABA EC20, Xenopus oocytes
In short: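 Oocytes injected with receptor subunit mRNA were recorded 3–5 days later by two-electrode voltage clamp at −80 mV, room temperature, pH 7.4. Compound was applied during a second GABA EC20 pulse, with at least 3 oocytes per concentration. Efficacy is the ratio-trace extremum, expressed as % modulation of GABA EC20.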

| Compound | Efficacy (GABA)% [%] | Fold increase h-GABA-A α2β2γ1 oocyte @ 30-fold Ki |
| --- | --- | --- |
| Fc1cccc(F)c1C1=NCc2nnc(-c3cccnn3)n2-c2ccc(Br)c(Br)c21 [Example 42, 7,8-dibromo-6-(2,6-difluorophenyl)-1-pyridazin-3-yl-4H-[1,2,4]triazolo[4,3-a][1,4]benzodiazepine] | 97 | 1.97 |
| Fc1cccc(F)c1C1=NCc2nnc(-c3ccncn3)n2-c2ccc(Br)c(Br)c21 [Example 43, 7,8-dibromo-6-(2,6-difluorophenyl)-1-pyrimidin-4-yl-4H-[1,2,4]triazolo[4,3-a][1,4]benzodiazepine] | 23 | 1.23 |
| Clc1cccnc1C1=NCc2nnc(-c3ccncn3)n2-c2ccc(Br)c(Cl)c21 [Example 44, 8-bromo-7-chloro-6-(3-chloro-2-pyridyl)-1-pyrimidin-4-yl-4H-[1,2,4]triazolo[4,3-a][1,4]benzodiazepine] | 62 | 1.62 |
| Fc1cccnc1C1=NCc2nnc(-c3cccnn3)n2-c2ccc(Br)c(Cl)c21 [Example 45, 8-bromo-7-chloro-6-(3-fluoro-2-pyridyl)-1-pyridazin-3-yl-4H-[1,2,4]triazolo[4,3-a][1,4]benzodiazepine] | 828 | 9.28 |
| Fc1cccnc1C1=NCc2nnc(-c3ccncn3)n2-c2ccc(Br)c(Cl)c21 [Example 46, 8-bromo-7-chloro-6-(3-fluoro-2-pyridyl)-1-pyrimidin-4-yl-4H-[1,2,4]triazolo[4,3-a][1,4]benzodiazepine] | 55 | 1.55 |
| Clc1cccnc1C1=NCc2nnc(-c3cccnn3)n2-c2ccc(Br)c(Cl)c21 [Example 47, 8-bromo-7-chloro-6-(3-chloro-2-pyridyl)-1-pyridazin-3-yl-4H-[1,2,4]triazolo[4,3-a][1,4]benzodiazepine] | 314 | 4.14 |
| Cc1ccc2c(c1Cl)C(c1c(F)cccc1F)=NCc1nnc(-c3cccnn3)n1-2 [Example 48, 7-chloro-6-(2,6-difluorophenyl)-8-methyl-1-pyridazin-3-yl-4H-[1,2,4]triazolo[4,3-a][1,4]benzodiazepine] | 101 | 2.01 |
| Cc1ccc2c(c1Cl)C(c1c(F)cccc1F)=NCc1nnc(-c3ccncn3)n1-2 [Example 49, 7-chloro-6-(2,6-difluorophenyl)-8-methyl-1-pyrimidin-4-yl-4H-[1,2,4]triazolo[4,3-a][1,4]benzodiazepine] | 57 | 1.57 |
| Cc1nnc2n1-c1ccc(Br)c(Cl)c1C(c1c(F)cccc1Cl)=NC2 [Example 50, 8-bromo-7-chloro-6-(2-chloro-6-fluoro-phenyl)-1-methyl-4H-[1,2,4]triazolo[4,3-a][1,4]benzodiazepine] | 54 | 1.54 |
| Fc1cccnc1C1=NCc2nnc(-c3cccnn3)n2-c2ccc(Cl)c(Cl)c21 [Example 54, 7,8-dichloro-6-(3-fluoro-2-pyridyl)-1-pyridazin-3-yl-4H-[1,2,4]triazolo[4,3-a][1,4]benzodiazepine] | 602 | 7.02 |
| Fc1cccnc1C1=NCc2nnc(-c3ccncn3)n2-c2ccc(Cl)c(Cl)c21 [Example 55, 7,8-dichloro-6-(3-fluoro-2-pyridyl)-1-pyrimidin-4-yl-4H-[1,2,4]triazolo[4,3-a][1,4]benzodiazepine] | 59 | 1.59 |
| COc1ccc2c(c1Cl)C(c1c(F)cccc1F)=NCc1nnc(-c3cccnn3)n1-2 [Example 57, 7-chloro-6-(2,6-difluorophenyl)-8-methoxy-1-pyridazin-3-yl-4H-[1,2,4]triazolo[4,3-a][1,4]benzodiazepine] | 149 | 2.49 |
| Cn1cc(-c2nnc3n2-c2ccc(Cl)c(Cl)c2C(c2ncccc2F)=NC3)cn1 [Example 58, 7,8-dichloro-6-(3-fluoro-2-pyridyl)-1-(1-methylpyrazol-4-yl)-4H-[1,2,4]triazolo[4,3-a][1,4]benzodiazepine] | 67 | 1.67 |
| O=c1[nH]nc2n1-c1ccc(Cl)c(Cl)c1C(c1ncccc1F)=NC2 [Example 59, 7,8-dichloro-6-(3-fluoro-2-pyridyl)-2,4-dihydro-[1,2,4]triazolo[4,3-a][1,4]benzodiazepin-1-one] | 115 | 2.15 |
| Fc1cccnc1C1=NCc2nncn2-c2ccc(Cl)c(Cl)c21 [Example 60, 7,8-dichloro-6-(3-fluoro-2-pyridyl)-4H-[1,2,4]triazolo[4,3-a][1,4]benzodiazepine] | 132 | 2.32 |
| COc1ccc2c(c1Cl)C(c1c(F)cccc1F)=NCc1nnc(-c3ccncn3)n1-2 [Example 61, 7-chloro-6-(2,6-difluorophenyl)-8-methoxy-1-pyrimidin-4-yl-4H-[1,2,4]triazolo[4,3-a][1,4]benzodiazepine] | 61 | 1.61 |
| COc1ccc2c(c1Cl)C(c1c(F)cccc1F)=NCc1nnc(-c3cccnc3)n1-2 [Example 62, 7-chloro-6-(2,6-difluorophenyl)-8-methoxy-1-(3-pyridyl)-4H-[1,2,4]triazolo[4,3-a][1,4]benzodiazepine] | 63 | 1.63 |
| Fc1cccnc1C1=NCc2nnc(C3CC3)n2-c2ccc(Cl)c(Cl)c21 [Example 65, 7,8-dichloro-1-cyclopropyl-6-(3-fluoro-2-pyridyl)-4H-[1,2,4]triazolo[4,3-a][1,4]benzodiazepine] | 114 | 2.14 |
| Fc1cccnc1C1=NCc2nnc(-c3ccncn3)n2-c2ccc(C(F)(F)F)c(Cl)c21 [Example 69, 7-chloro-6-(3-fluoro-2-pyridyl)-1-pyrimidin-4-yl-8-(trifluoromethyl)-4H-[1,2,4]triazolo[4,3-a][1,4]benzodiazepine] | 136 | 2.36 |
| Cn1cc(-c2nnc3n2-c2ccc(C(F)(F)F)c(Cl)c2C(c2ncccc2F)=NC3)cn1 [Example 70, 7-chloro-6-(3-fluoro-2-pyridyl)-1-(1-methylpyrazol-4-yl)-8-(trifluoromethyl)-4H-[1,2,4]triazolo[4,3-a][1,4]benzodiazepine] | 78 | 1.78 |
| Cc1nnc2n1-c1ccc(Cl)c(Cl)c1C(c1ncccc1F)=NC2 [Example 71, 7,8-dichloro-6-(3-fluoro-2-pyridyl)-1-methyl-4H-[1,2,4]triazolo[4,3-a][1,4]benzodiazepine] | 99 | 1.99 |
| Fc1cccnc1C1=NCc2nnc(-c3cccnn3)n2-c2ccc(C(F)(F)F)c(Cl)c21 [Example 72, 7-chloro-6-(3-fluoro-2-pyridyl)-1-pyridazin-3-yl-8-(trifluoromethyl)-4H-[1,2,4]triazolo[4,3-a][1,4]benzodiazepine] | 630 | 7.30 |
